Patent US20240116985A1, “STAPLED PEPTIDES AND METHODS THEREOF” (priority 2020, published 2024)
Converted amounts (≈) assume the structure as drawn. Where two headings read alike, the source gives them in different places.

Experiments:
CHI Log D procedure = assay type: physicochemical; conditions: for CHI Log D: pH 7.4; for logD: pH 7.4, CHI Log D
Solubility in PBS = assay type: physicochemical
Procedure, shortened: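 PBS sample ultracentrifuged; supernatant run on HPLC vs. 50 μM peptide in DMSO standard. Solubility = (PBS peak area / DMSO peak area) × 50 uM.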

SMILES	CHI Log D (CHI Log D procedure)	Solubility (Solubility in PBS)	logD (CHI Log D procedure)	Solubility (Solubility in PBS; Solubility (uM))
CC(=O)N1CCC[C@]12CC=CCCCC1(CCCC=CCCCCCC[C@@](C)(C(=O)N[C@@H](Cc3cccc(F)c3F)C(=O)N[C@@H](Cc3csc4ccccc34)C(=O)N[C@@H](CCC(N)=O)C(N)=O)NC(=O)[C@H](C(C)C)NC(=O)[C@H](Cc3ccccc3)NC(=O)[C@H](C)NC(=O)[C@H](C)NC(=O)[C@H](CCC(=O)O)NC(=O)[C@H](CC(=O)O)NC1=O)NC(=O)[C@H](C)NC(=O)[C@H](CC(=O)O)NC2=O (stereo partly drawn) [I-388, Ac-PL3-Asp-Ala-B5-Asp-Glu-Ala-Ala-Phe-Val-S8-23FF-BztA-Gln-NH2]	2.863	10 µM (≈ 18.5 µg/mL)		
C=CC(=O)NC[C@H](NC(=O)[C@]1(C)CCCCCCC=CCCCC2(CCCC=CC[C@]3(CCCN3C(C)=O)C(=O)N[C@@H](CC(=O)O)C(=O)N[C@@H]([C@@H](C)CC)C(=O)N2)C(=O)N[C@@H](CC(=O)O)C(=O)N[C@@H](CC(=O)O)C(=O)N[C@@H](C)C(=O)N[C@@H](C)C(=O)N[C@@H](Cc2ccccc2)C(=O)N[C@@H](CCC(N)=O)C(=O)N1)C(=O)N[C@@H](Cc1csc2ccccc12)C(=O)N[C@@H](CCC(N)=O)C(N)=O (stereo partly drawn) [I-483, Ac-PL3-Asp-Ile-B5-Asp-Asp-Ala-Ala-Phe-Gln-S8-[Acryl]Dap-BztA-Gln-NH2]	1.845	43 µM (≈ 80.1 µg/mL)		
CC(=O)N1CCC[C@]12CC=CCCCC1(CCCC=CCCCCCC[C@@](C)(C(=O)N[C@@H](Cc3ccc(C(=O)O)cc3)C(=O)N[C@@H](Cc3csc4ccccc34)C(=O)N[C@@H](CCC(N)=O)C(N)=O)NC(=O)[C@H](C(C)C)NC(=O)[C@H](Cc3ccccc3)NC(=O)[C@H](C)NC(=O)[C@H](C)NC(=O)[C@H](CC(=O)O)NC(=O)[C@H](CC(=O)O)NC1=O)NC(=O)[C@H](C)NC(=O)[C@H](CC(=O)O)NC2=O (stereo partly drawn) [I-339, Ac-PL3-Asp-Ala-B5-Asp-Asp-Ala-Ala-Phe-Val-S8-4COOHF-BztA-Gln-NH2]	1.328	50 µM (≈ 92.1 µg/mL)		
CC(=O)N1CCC[C@]12CC=CCCCC1(CCCC=CCCCCCC[C@@](C)(C(=O)N[C@@H](Cc3ccccc3)C(=O)N[C@@H](Cc3csc4ccccc34)C(=O)N[C@@H](CCC(N)=O)C(N)=O)NC(=O)[C@H](CC(N)=O)NC(=O)[C@H](Cc3ccccc3)NC(=O)[C@H](C)NC(=O)[C@H](C)NC(=O)[C@H](CCC(=O)O)NC(=O)[C@H](CCNS(C)(=O)=O)NC1=O)NC(=O)[C@H](C)NC(=O)[C@H](CC(=O)O)NC2=O (stereo partly drawn) [I-532, Ac-PL3-Asp-Ala-B5-[MeSO2]Dab-Glu-Ala-Ala-Phe-Asn-S8-Phe-BztA-Gln-NH2]	2.858	42 µM (≈ 79.4 µg/mL)		
CC(=O)N1CCC[C@]12CC=CCCCC1(CCCC=CCCCCCC[C@@](C)(C(=O)N[C@@H](Cc3ccsc3)C(=O)N[C@@H](Cc3csc4ccccc34)C(=O)N[C@@H](CCC(N)=O)C(=O)N[C@H](C)C(=O)N[C@H](C)C(=O)N[C@H](C)C(N)=O)NC(=O)[C@H](CC(N)=O)NC(=O)[C@H](Cc3ccccc3)NC(=O)[C@H](C)NC(=O)[C@H](C)NC(=O)[C@H](CC(=O)O)NC(=O)[C@H](CC(=O)O)NC1=O)NC(=O)[C@H](CC(C)(C)C)NC(=O)[C@H](CC(=O)O)NC2=O (stereo partly drawn) [I-876, Ac-PL3-Asp-Npg-B5-Asp-Asp-Ala-Ala-Phe-Asn-S8-3Thi-BztA-Gln-dAla-dAla]		50 µM (≈ 104 µg/mL)	2.26	
CC(=O)N1CCC[C@]12CC=CCCCC1(CCCC=CCCCCCC[C@@](C)(C(=O)N[C@@H](Cc3cccc(F)c3)C(=O)N[C@@H](Cc3c[nH]c4ccccc34)C(=O)N[C@@H](CCC(N)=O)C(N)=O)NC(=O)[C@H](CCC(N)=O)NC(=O)[C@H](Cc3ccsc3)NC(=O)[C@H](C)NC(=O)[C@H](C)NC(=O)[C@H](CCC(=O)O)NC(=O)[C@H](CC(=O)O)NC1=O)NC(=O)[C@H](C)NC(=O)[C@H](CC(=O)O)NC2=O (stereo partly drawn) [I-451, Ac-PL3-Asp-Ala-B5-Asp-Glu-Ala-Ala-3Thi-Gln-S8-3FF-Trp-Gln-NH2]	1.88	50 µM (≈ 92.4 µg/mL)		
CC(=O)N1CCC[C@]12CC=CCCCC1(CCCC=CCCCCCC[C@@](C)(C(=O)N[C@@H](C)C(=O)N[C@@H](Cc3c[nH]c4ccccc34)C(=O)N[C@@H](CCC(N)=O)C(N)=O)NC(=O)[C@H](C(C)C)NC(=O)[C@H](Cc3ccccc3)NC(=O)[C@H](C)NC(=O)[C@H](C)NC(=O)[C@H](CC(=O)O)NC(=O)[C@H](CC(=O)O)NC1=O)NC(=O)[C@H](C)NC(=O)[C@H](CC(=O)O)NC2=O (stereo partly drawn) [I-355, Ac-PL3-Asp-Ala-B5-Asp-Asp-Ala-Ala-Phe-Val-S8-Ala-Trp-Gln-NH2]	1.606	49 µM (≈ 83.5 µg/mL)		
CC(=O)N1CCC[C@]12CC=CCCCC1(CCCC=CCCCOC(=O)N3CC[C@@](C(=O)N[C@@H](Cc4ccsc4)C(=O)N[C@@H](Cc4csc5ccccc45)C(=O)N[C@@H](CCC(N)=O)C(=O)N[C@@H](C)C(=O)N[C@@H](C)C(=O)N[C@@H](C)C(N)=O)(C3)NC(=O)[C@H](CC(N)=O)NC(=O)[C@H](Cc3ccccc3)NC(=O)[C@H](C)NC(=O)[C@H](C)NC(=O)[C@H](CC(=O)O)NC(=O)[C@H](CC(=O)O)NC1=O)NC(=O)[C@H](CC(C)(C)C)NC(=O)[C@H](CC(=O)O)NC2=O (stereo partly drawn) [I-870, Ac-PL3-Asp-Npg-B5-Asp-Asp-Ala-Ala-Phe-Asn-PyrS2-3Thi-BztA-Gln-Ala-Ala]			1.99	47 µM (≈ 100 µg/mL)
CC(=O)N1CCC[C@]12CC=CCCCC1(CCCC=CCCCOC(=O)N3CC[C@@](C(=O)N[C@@H](Cc4ccsc4)C(=O)N[C@@H](Cc4csc5ccccc45)C(=O)N[C@@H](CCC(N)=O)C(=O)N[C@@H](C)C(=O)N[C@@H](C)C(=O)N[C@H](C)C(N)=O)(C3)NC(=O)[C@H](CC(N)=O)NC(=O)[C@H](Cc3ccccc3)NC(=O)[C@H](C)NC(=O)[C@H](C)NC(=O)[C@H](CC(=O)O)NC(=O)[C@H](CC(=O)O)NC1=O)NC(=O)[C@H](CC(C)(C)C)NC(=O)[C@H](CC(=O)O)NC2=O (stereo partly drawn) [I-873, Ac-PL3-Asp-Npg-B5-Asp-Asp-Ala-Ala-Phe-Asn-PyrS2-3Thi-BztA-Gln-Ala-Ala]			2	47 µM (≈ 100 µg/mL)
CC(=O)N1CCC[C@]12CC=CCCCC1(CCCC=CCCCCCC[C@@](C)(C(=O)N[C@@H](Cc3ccsc3)C(=O)N[C@@H](Cc3csc4ccccc34)C(=O)N[C@@H](CCC(N)=O)C(=O)N[C@@H](C)C(=O)N[C@@H](C)C(=O)N[C@@H](C)C(N)=O)NC(=O)[C@H](CC(N)=O)NC(=O)[C@H](Cc3ccccc3)NC(=O)[C@H](C)NC(=O)[C@H](C)NC(=O)[C@H](CC(=O)O)NC(=O)[C@H](CC(=O)O)NC1=O)NC(=O)[C@H](CC(C)(C)C)NC(=O)[C@H](CC(=O)O)NC2=O (stereo partly drawn) [I-874, Ac-PL3-Asp-Npg-B5-Asp-Asp-Ala-Ala-Phe-Asn-S8-3Thi-BztA-Gln-Ala-Ala]		50 µM (≈ 104 µg/mL)	2.31	
CC(=O)N1CCC[C@]12CC=CCCCC1(CCCC=CCCCCCC[C@@](C)(C(=O)N[C@@H](Cc3cn(C)cn3)C(=O)N[C@@H](Cc3csc4ccccc34)C(=O)N[C@@H](CCC(N)=O)C(N)=O)NC(=O)[C@H](CC(N)=O)NC(=O)[C@H](Cc3ccccc3)NC(=O)[C@H](C)NC(=O)[C@H](C)NC(=O)[C@H](CCC(=O)O)NC(=O)[C@H](CC(=O)O)NC1=O)NC(=O)[C@H](C)NC(=O)[C@H](CC(=O)O)NC2=O (stereo partly drawn) [I-439, Ac-PL3-Asp-Ala-B5-Asp-Glu-Ala-Ala-Phe-Asn-S8-1meH-BztA-Gln-NH2]	1.408	50 µM (≈ 91.6 µg/mL)		
CC(=O)N1CCC[C@]12CC=CCCCC1(CCCC=CCCCOC(=O)N3CC[C@@](C(=O)N[C@@H](Cc4ccsc4)C(=O)N[C@@H](Cc4csc5ccccc45)C(=O)N[C@@H](CCC(N)=O)C(=O)N[C@H](C)C(=O)N[C@@H](C)C(=O)N[C@@H](C)C(N)=O)(C3)NC(=O)[C@H](CC(N)=O)NC(=O)[C@H](Cc3ccccc3)NC(=O)[C@H](C)NC(=O)[C@H](C)NC(=O)[C@H](CC(=O)O)NC(=O)[C@H](CC(=O)O)NC1=O)NC(=O)[C@H](CC(C)(C)C)NC(=O)[C@H](CC(=O)O)NC2=O (stereo partly drawn) [I-871, Ac-PL3-Asp-Npg-B5-Asp-Asp-Ala-Ala-Phe-Asn-PyrS2-3Thi-BztA-Gln-dAla-Ala]			1.92	45 µM (≈ 95.9 µg/mL)
CC(=O)N1CCC[C@]12CC=CCCCC1(CCCC=CCCCCCC[C@@](C)(C(=O)N[C@@H](Cc3ccccc3)C(=O)N[C@@H](Cc3csc4ccccc34)C(=O)N[C@@H](CCC(N)=O)C(N)=O)NC(=O)[C@H](CCC(N)=O)NC(=O)[C@H](Cc3ccccc3)NC(=O)[C@H](C)NC(=O)[C@H](C)NC(=O)[C@H](CCC(=O)O)NC(=O)[C@H](CCO)NC1=O)NC(=O)[C@H](C)NC(=O)[C@H](CC(=O)O)NC2=O (stereo partly drawn) [I-496, Ac-PL3-Asp-Ala-B5-Hse-Glu-Ala-Ala-Phe-Gln-S8-Phe-BztA-Gln-NH2]	2.456	41 µM (≈ 74.9 µg/mL)		
CC(=O)N1CCC[C@]12CC=CCCCC1(CCCC=CCCCOC(=O)N3CC[C@@](C(=O)N[C@@H](Cc4ccsc4)C(=O)N[C@@H](Cc4csc5ccccc45)C(=O)N[C@@H](CCC(N)=O)C(N)=O)(C3)NC(=O)[C@H](CC(C)C)NC(=O)[C@H](Cc3ccccc3)NC(=O)[C@H](C)NC(=O)[C@H](CCCCNC(=O)c3ccc(-n4cc(CNC(=O)c5ccc6c(c5)C5(OC6=O)c6ccc(O)cc6Oc6cc(O)ccc65)nn4)cc3)NC(=O)[C@H](CC(C)C)NC(=O)[C@H](CC(=O)O)NC1=O)NC(=O)[C@H](CC(C)(C)C)NC(=O)[C@H](CC(=O)O)NC2=O (stereo partly drawn) [I-868, Ac-PL3-Asp-Npg-B5-Asp-Leu-[FAM6Ppg][p1TB]Lys-Ala-Phe-Leu-PyrS2-3Thi-BztA-Gln-NH2]		10 µM (≈ 25.3 µg/mL)	1.88	
